From patent US6440440B1, “Biocidal benzylbiphenyl derivatives” (priority 1998, dated 2002)

What was measured:
Assay type in all cases: cell-based
Escherichia coli = assay: Primary bacteria screening; design: key: score: 3 = complete inhibition of growth, 2 = growth partially controlled; settings: test compound concentration 500 μMol in tryptose broth agar, 27° C.
Description: (§1) The stock solutions with the test compounds were pipetted into multiwell plates and mixed with warm tryptose broth agar (2.6%) in order to reach a test compound concentration of 500 μMol. The medium was allowed to cool and subsequently inoculated with the bacteria. Wells were placed in an incubator at 27° C. and a relative humidity of 70%. After sufficient growth of the untreated cultures, the test was evaluated.
(§2) 3: complete inhibition of bacterial growth
(§3) 2: bacterial growth partially controlled

Pseudomonas aeruginosa = assay: Primary bacteria screening; design: key: score: 3 = complete inhibition of growth, 2 = growth partially controlled; settings: test compound concentration 500 μMol in tryptose broth agar, 27° C.
Description: as §1, §2, §3

Debaryomyces hansenii = assay: Screening against yeasts; design: key: 3 = complete inhibition of growth, 2 = growth partially controlled; settings: test compound concentration 500 μM
Description: as §1, §2, §3
(§4) A number of compounds of formula (I) were also tested in a screening against certain The test conditions are the same as described in biological example C.1. The concentration of the test compound was also 500 μmol, and the scoring system used was also the same.
Debaryomyces hansenii (19)

Rhodotorula rubra [1] = assay: Screening against yeasts; design: key: 3 = complete inhibition of growth, 2 = growth partially controlled; settings: test compound concentration 500 μmol
Description: as §1, §2, §3, §4

Sporobolomyces roseus = assay: Screening against yeasts; design: key: 3 = complete inhibition of growth, 2 = growth partially controlled; settings: test compound concentration 500 μmol
Description: as §1, §2, §3, §4
Sporobolomyces roseus (21)

Cellulomonas flavigena = assay: Poison plate assay, synergistic effect in combinations with BIT; settings: for Calculated activity: Limpel's formula
Description: (§5) Biocidal activity against bacterial/yeast growth was determined with the poison plate assay. To obtain the required concentrations of the test compound, calculated amounts of stock solutions (DMSO) were pipetted into multi-well plates. Tryptose agar (except for Rhodotorula: PDA) was added aseptically and uniform distribution was obtained by shaking. Each plate was inoculated with a bacterial/yeast suspension. After incubation at 27° C. and 70% relative humidity, for a period long enough to allow complete growth of controls, percentage activity as compared to the control was scored.
(§6) Possible synergy was investigated using Limpel's formula (Richter, D. L., Pestic. Sci. 1987, 19: 309-315): [formula]
(§7) where EC is the expected additive response, or calculated activity, X is the observed percentage control when compound A is applied alone and Y is the observed percentage control when compound B is applied alone. Synergy was considered to occur when the observed effect, or measured activity, of a combination of both compounds was greater than the corresponding EC value.
(§8) The table C.4 to C.6 below enumerate the measured and calculated activities of BIT and compounds 20, 42 and 40 when tested as a single test compound or as a combination against Rhodotorula rubra or Cellulomonas flavigena. BIT (1,2-benzisothiazol-3(2H)-one) is a well-known bacteride and was tested at a concentration of 25 and 50 μmol. Compounds 20, 40 and 42 were tested at a concentration of 25, 50 and 75 μmol. When a synergistic effect was observed, the “measured” and “calculated” activity are indicated with a bold typeface.

Rhodotorula rubra [2] = assay: as above; settings: for Calculated activity: Limpel's formula
Description: as §5, §6, §7, §8

Providencia rettgeri = assay: Poison plate assay, combinations with BAC; settings: for Calculated activity: Limpel's formula
Description: as §5, §6, §7
The table C.7 to C.8 below enumerate the measured and calculated activities of BAC and compounds 20, 42 and 40 when tested as a single test compound or as a combination against Providencia rettgeri. BAC (benzalconium chloride) is a well-bacteride and was tested at a concentration of 40 and 80 μmol. Compounds 20, 40 and 42 were tested at a concentration of 10, 20, 40, 80 and 160 μmol. When a synergistic effect was observed, the “measured” and “calculated” activity are indicated with a bold typeface.

[3] = combination BIT 25 μmol + compound 25 μmol
[4] = combination BIT 25 μmol + compound 50 μmol
[5] = combination BIT 25 μmol + compound 75 μmol
[6] = combination BIT 50 μmol + compound 25 μmol
[7] = combination BIT 50 μmol + compound 50 μmol
[8] = combination BIT 50 μmol + compound 75 μmol
[9] = BAC 40 μmol + compound 160 μmol
[10] = BAC 80 μmol + compound 160 μmol
[11] = combination BAC 40 μmol + compound 10 μmol
[12] = combination BAC 40 μmol + compound 20 μmol
[13] = combination BAC 40 μmol + compound 40 μmol
[14] = combination BAC 40 μmol + compound 80 μmol
[15] = combination BAC 40 μmol + compound 160 μmol
[16] = combination BAC 80 μmol + compound 10 μmol
[17] = combination BAC 80 μmol + compound 20 μmol
[18] = combination BAC 80 μmol + compound 40 μmol
[19] = combination BAC 80 μmol + compound 80 μmol
[20] = combination BAC 80 μmol + compound 160 μmol

## Cl.Cl.O.c1ccc(-c2ccc(C(c3ccccc3)C3CCN(C4CCNCC4)CC3)cc2)cc1 (racemic) [Co. No. 20, (±)-4-[[(1,1′-biphenyl)-4-yl]phenylmethyl](1,4′-bipiperidine)dihydrochloride monohydrate]
Escherichia coli
  E. coli (growth inhibition score): 3
Pseudomonas aeruginosa
  P. aeruginosa (growth inhibition score): 3
Debaryomyces hansenii
  Test yeast (19) Debaryomyces hansenii (score): 3
Rhodotorula rubra [1]
  Test yeast (20) Rhodotorula rubra (score): 3
Sporobolomyces roseus
  Test yeast (21) Sporobolomyces roseus (score): 3
Cellulomonas flavigena; BIT 25 μmol + compound 25 μmol
  Calculated activity: 0%
Cellulomonas flavigena; BIT 25 μmol + compound 50 μmol
  Calculated activity: 0%
Cellulomonas flavigena; BIT 25 μmol + compound 75 μmol
  Calculated activity: 0%
Cellulomonas flavigena; BIT 50 μmol + compound 25 μmol
  Calculated activity: 100%
Cellulomonas flavigena; BIT 50 μmol + compound 50 μmol
  Calculated activity: 100%
Cellulomonas flavigena; BIT 50 μmol + compound 75 μmol
  Calculated activity: 100%
Cellulomonas flavigena; [3]
  Measured activity: 0%
Cellulomonas flavigena; [4]
  Measured activity: 100%
Cellulomonas flavigena; [5]
  Measured activity: 95%
Cellulomonas flavigena; [6]
  Measured activity: 100%
Cellulomonas flavigena; [7]
  Measured activity: 100%
Cellulomonas flavigena; [8]
  Measured activity: 100%
Cellulomonas flavigena; compound alone 25 μmol
  Measured activity: 0%
Cellulomonas flavigena; compound alone 50 μmol
  Measured activity: 0%
Cellulomonas flavigena; compound alone 75 μmol
  Measured activity: 0%
Rhodotorula rubra [2]; BIT 25 μmol + compound 25 μmol
  Calculated activity: 0%
Rhodotorula rubra [2]; BIT 25 μmol + compound 50 μmol
  Calculated activity: 0%
Rhodotorula rubra [2]; BIT 25 μmol + compound 75 μmol
  Calculated activity: 0%
Rhodotorula rubra [2]; BIT 50 μmol + compound 25 μmol
  Calculated activity: 0%
Rhodotorula rubra [2]; BIT 50 μmol + compound 50 μmol
  Calculated activity: 0%
Rhodotorula rubra [2]; BIT 50 μmol + compound 75 μmol
  Calculated activity: 0%
Rhodotorula rubra [2]; [3]
  Measured activity: 0%
Rhodotorula rubra [2]; [4]
  Measured activity: 100%
Rhodotorula rubra [2]; [5]
  Measured activity: 100%
Rhodotorula rubra [2]; [6]
  Measured activity: 100%
Rhodotorula rubra [2]; [7]
  Measured activity: 100%
Rhodotorula rubra [2]; [8]
  Measured activity: 100%
Rhodotorula rubra [2]; compound alone 25 μmol
  Measured activity: 0%
Rhodotorula rubra [2]; compound alone 50 μmol
  Measured activity: 0%
Rhodotorula rubra [2]; compound alone 75 μmol
  Measured activity: 0%
Providencia rettgeri; BAC 40 μmol + compound 10 μmol
  Calculated activity: 0%
Providencia rettgeri; BAC 40 μmol + compound 20 μmol
  Calculated activity: 0%
Providencia rettgeri; BAC 40 μmol + compound 40 μmol
  Calculated activity: 30%
Providencia rettgeri; BAC 40 μmol + compound 80 μmol
  Calculated activity: 90%
Providencia rettgeri; [9]
  Calculated activity: 100%
Providencia rettgeri; BAC 80 μmol + compound 10 μmol
  Calculated activity: 100%
Providencia rettgeri; BAC 80 μmol + compound 20 μmol
  Calculated activity: 100%
Providencia rettgeri; BAC 80 μmol + compound 40 μmol
  Calculated activity: 100%
Providencia rettgeri; BAC 80 μmol + compound 80 μmol
  Calculated activity: 100%
Providencia rettgeri; [10]
  Calculated activity: 100%
Providencia rettgeri; [11]
  Measured activity: 50%
Providencia rettgeri; [12]
  Measured activity: 50%
Providencia rettgeri; [13]
  Measured activity: 100%
Providencia rettgeri; [14]
  Measured activity: 100%
Providencia rettgeri; [15]
  Measured activity: 100%
Providencia rettgeri; [16]
  Measured activity: 100%
Providencia rettgeri; [17]
  Measured activity: 100%
Providencia rettgeri; [18]
  Measured activity: 100%
Providencia rettgeri; [19]
  Measured activity: 100%
Providencia rettgeri; [20]
  Measured activity: 100%
Providencia rettgeri; compound alone 10 μmol
  Measured activity: 0%
Providencia rettgeri; compound alone 20 μmol
  Measured activity: 0%
Providencia rettgeri; compound alone 40 μmol
  Measured activity: 30%
Providencia rettgeri; compound alone 80 μmol
  Measured activity: 90%
Providencia rettgeri; compound alone 160 μmol
  Measured activity: 100%

## O=c1[nH]sc2ccccc12 [BIT, 1,2-benzisothiazol-3(2H)-one, reference compound]
Cellulomonas flavigena; BIT alone 25 μmol
  Measured activity: 0%
Cellulomonas flavigena; BIT alone 50 μmol
  Measured activity: 100%
Rhodotorula rubra [2]; BIT alone 25 μmol
  Measured activity: 0%
Rhodotorula rubra [2]; BIT alone 50 μmol
  Measured activity: 0%

## Cl.Cl.NCCCNCCC(c1ccccc1)c1ccc(-c2ccccc2)cc1 (stereo not shown) [Co. No. 40]
Escherichia coli
  E. coli (growth inhibition score): 3
Pseudomonas aeruginosa
  P. aeruginosa (growth inhibition score): 3
Debaryomyces hansenii
  Test yeast (19) Debaryomyces hansenii (score): 3
Rhodotorula rubra [1]
  Test yeast (20) Rhodotorula rubra (score): 3
Sporobolomyces roseus
  Test yeast (21) Sporobolomyces roseus (score): 3
Providencia rettgeri; BAC 40 μmol + compound 10 μmol
  Calculated activity: 50%
Providencia rettgeri; BAC 40 μmol + compound 20 μmol
  Calculated activity: 50%
Providencia rettgeri; BAC 40 μmol + compound 40 μmol
  Calculated activity: 95%
Providencia rettgeri; BAC 40 μmol + compound 80 μmol
  Calculated activity: 100%
Providencia rettgeri; [9]
  Calculated activity: 100%
Providencia rettgeri; BAC 80 μmol + compound 10 μmol
  Calculated activity: 100%
Providencia rettgeri; BAC 80 μmol + compound 20 μmol
  Calculated activity: 100%
Providencia rettgeri; BAC 80 μmol + compound 40 μmol
  Calculated activity: 100%
Providencia rettgeri; BAC 80 μmol + compound 80 μmol
  Calculated activity: 100%
Providencia rettgeri; [10]
  Calculated activity: 100%
Providencia rettgeri; [11]
  Measured activity: 100%
Providencia rettgeri; [12]
  Measured activity: 100%
Providencia rettgeri; [13]
  Measured activity: 100%
Providencia rettgeri; [14]
  Measured activity: 100%
Providencia rettgeri; [15]
  Measured activity: 100%
Providencia rettgeri; [16]
  Measured activity: 100%
Providencia rettgeri; [17]
  Measured activity: 100%
Providencia rettgeri; [18]
  Measured activity: 100%
Providencia rettgeri; [19]
  Measured activity: 100%
Providencia rettgeri; [20]
  Measured activity: 100%
Providencia rettgeri; compound alone 10 μmol
  Measured activity: 0%
Providencia rettgeri; compound alone 20 μmol
  Measured activity: 0%
Providencia rettgeri; compound alone 40 μmol
  Measured activity: 90%
Providencia rettgeri; compound alone 80 μmol
  Measured activity: 100%
Providencia rettgeri; compound alone 160 μmol
  Measured activity: 100%

## Cl.Cl.NCCCN1CCC(C(c2ccccc2)c2ccc(-c3ccccc3)cc2)CC1.O (stereo not shown) [Co. No. 42]
Escherichia coli
  E. coli (growth inhibition score): 3
Pseudomonas aeruginosa
  P. aeruginosa (growth inhibition score): 3
Debaryomyces hansenii
  Test yeast (19) Debaryomyces hansenii (score): 3
Rhodotorula rubra [1]
  Test yeast (20) Rhodotorula rubra (score): 3
Sporobolomyces roseus
  Test yeast (21) Sporobolomyces roseus (score): 3
Providencia rettgeri; BAC 40 μmol + compound 10 μmol
  Calculated activity: 0%
Providencia rettgeri; BAC 40 μmol + compound 20 μmol
  Calculated activity: 0%
Providencia rettgeri; BAC 40 μmol + compound 40 μmol
  Calculated activity: 30%
Providencia rettgeri; BAC 40 μmol + compound 80 μmol
  Calculated activity: 90%
Providencia rettgeri; [9]
  Calculated activity: 100%
Providencia rettgeri; BAC 80 μmol + compound 10 μmol
  Calculated activity: 100%
Providencia rettgeri; BAC 80 μmol + compound 20 μmol
  Calculated activity: 100%
Providencia rettgeri; BAC 80 μmol + compound 40 μmol
  Calculated activity: 100%
Providencia rettgeri; BAC 80 μmol + compound 80 μmol
  Calculated activity: 100%
Providencia rettgeri; [10]
  Calculated activity: 100%
Providencia rettgeri; [11]
  Measured activity: 50%
Providencia rettgeri; [12]
  Measured activity: 50%
Providencia rettgeri; [13]
  Measured activity: 100%
Providencia rettgeri; [14]
  Measured activity: 100%
Providencia rettgeri; [15]
  Measured activity: 100%
Providencia rettgeri; [16]
  Measured activity: 100%
Providencia rettgeri; [17]
  Measured activity: 100%
Providencia rettgeri; [18]
  Measured activity: 100%
Providencia rettgeri; [19]
  Measured activity: 100%
Providencia rettgeri; [20]
  Measured activity: 100%
Providencia rettgeri; compound alone 10 μmol
  Measured activity: 0%
Providencia rettgeri; compound alone 20 μmol
  Measured activity: 0%
Providencia rettgeri; compound alone 40 μmol
  Measured activity: 30%
Providencia rettgeri; compound alone 80 μmol
  Measured activity: 90%
Providencia rettgeri; compound alone 160 μmol
  Measured activity: 100%

## Cl.Cl.Cl.NC1CCN(C2CCN(C(c3ccccc3)c3ccc(-c4ccccc4)cc3)CC2)CC1 (stereo not shown) [compound 49]
Escherichia coli
  E. coli (growth inhibition score): 3
Pseudomonas aeruginosa
  P. aeruginosa (growth inhibition score): 1
Debaryomyces hansenii
  Test yeast (19) Debaryomyces hansenii (score): 3
Rhodotorula rubra [1]
  Test yeast (20) Rhodotorula rubra (score): 2
Sporobolomyces roseus
  Test yeast (21) Sporobolomyces roseus (score): 3

## Br.Br.c1ccc(-c2ccc(C(CCNC3CCNCC3)c3ccccc3)cc2)cc1 (stereo not shown) [compound 50]
Escherichia coli
  E. coli (growth inhibition score): 3
Pseudomonas aeruginosa
  P. aeruginosa (growth inhibition score): 1
Debaryomyces hansenii
  Test yeast (19) Debaryomyces hansenii (score): 3
Rhodotorula rubra [1]
  Test yeast (20) Rhodotorula rubra (score): 3
Sporobolomyces roseus
  Test yeast (21) Sporobolomyces roseus (score): 3

## Br.Br.CN(CCC(c1ccccc1)c1ccc(-c2ccccc2)cc1)C1CCNCC1 (stereo not shown) [compound 51]
Escherichia coli
  E. coli (growth inhibition score): 3
Pseudomonas aeruginosa
  P. aeruginosa (growth inhibition score): 1
Debaryomyces hansenii
  Test yeast (19) Debaryomyces hansenii (score): 3
Rhodotorula rubra [1]
  Test yeast (20) Rhodotorula rubra (score): 3
Sporobolomyces roseus
  Test yeast (21) Sporobolomyces roseus (score): 3
